Experimental findings from patent US7527935B2, “G-protein coupled receptor having eicosanoid as ligand and gene thereof” (Mitsubishi Tanabe Pharma Corporation, priority 2002, dated 2009) are described below.

Test [1] relates to PC3 human prostate cancer cells. As to the kind of experiment: Apoptosis analysis (annexin V / PI flow cytometry) in PC3 cells. Format: cell-based. The note with it: 20 μl of 100 μM 5-oxo-ETE added together with DHA, 2 hours. Here is the method:
PC3 human prostate cancer cells, which had been cultured in RPMI1640 culture medium supplemented with 10% fetal bovine serum were dissociated by trypsin-EDTA solution (GibcoBRL), and suspended in RPMI1640 culture medium supplemented with 0.5% fetal bovine serum. The cells were plated onto a 6 cm Petri dish to 2×10^5 cells/dish, and cultured at 37° C. for 18 hours in a CO2 incubator. The supernatant was removed and 1980 μl of the same medium was added, and 20 μl of 1 mM DHA was further added thereto, and the mixture was cultured at 37° C. for 2 hours in a CO2 incubator.
In addition, as a test in the presence of 5-oxo-ETE, 1960 μl of RPMI1640 culture medium supplemented with 0.5% fetal bovine serum was added, and 20 μl of a 100 μM 5-oxo-ETE solution and 20 μl of a 1 mM DHA solution were further added thereto, and the cells were cultured in a similar manner as described above.
The adhered cells were removed by a cell scraper, transferred to a 1.5 ml tube, and centrifuged at 800×g for 5 minutes at 4° C., to collect suspended and adhered cells. […] The cells were suspended in 100 μl of a FITC-Annexin solution, and after 15 minutes of reaction under light-shielded condition at room temperature, 300 μl of Binding buffer was added thereto, and the FITC-Annexin bound to the cells and propidium iodide (PI) uptake into the cells were measured, by means of flow cytometer [Becton Dickinson].
Background: Flow cytometry measures light scatter and fluorescence of single cells or particles in a stream.

Test [2] addresses T1, fusion protein of TG1019 protein and Giα1 (351Cys→Ile) (Homo sapiens, UniProt P63096+Q8TDS5, C351I/D111G/K206E/T295A).
T1 construct: made in house; host or cells: Sf9 insect cells (baculovirus, pVL1392), membrane fraction
In words: [35S]GTPγS binding to membrane fraction containing TG1019-Giα1 (351Cys→Ile) fusion protein (ligand identification). Format: biochemical. The settings on record: membrane fraction with TG1019-Giα1 (351Cys→Ile) fusion protein. An excerpt:
As stated in Example 1, it is concluded that TG1019 protein is a G-protein coupled receptor. Therefore, using a membrane fraction containing fused protein of TG1019 and G-protein, a ligand is identified as follows, according to a method for detecting a ligand-dependent binding with GTPγS (guanosine 5′-O-(3-thiotriphosphate)) [Wenzel-Seifert, et al., Mol. Pharmacom., Vol. 58, pp. 954-966, 2000; Bahia, et al., Biochemistry, Vol. 37, pp. 11555-11562, 1998].
Sf9 cells were inoculated onto a 10 cm Petri dish coated with collagen to about 70% confluence, and added thereto were Virus solution III (100 μl) obtained above and 12 ml of a culture medium, and the mixture was cultured at 27° C. for 4 days. The obtained cells were washed with a cooled PBS (Phosphate buffered saline, pH 7.4), and suspended in 3.6 ml of a cooled solution buffer [20 mM Tris-HCl, pH 7.5, 1 mM EDTA, 0.2 mM phenylmethylsulfonyl fluoride, 10 μg/ml pepstatin, 10 μg/ml leupeptin, and 2 μg/ml aprotinin], and the cells were homogenized by means of a Teflon homogenizer. This cell homogenate was centrifuged (600×g, 10 minutes), and the resultant supernatant was further centrifuged (50,000×g, 20 minutes). The obtained sediments were suspended in 450 μl of a cooled reaction buffer [20 mM Tris-HCl, pH 7.5, 50 mM sodium chloride, 10 mM magnesium chloride] by means of a Teflon homogenizer, to prepare a membrane fraction containing a fusion protein.
The membrane fraction (450 μl) obtained above (2) was suspended in a reaction buffer (7.54 ml), and added thereto was GDP (10 mM, 10 μl). To 160 μl of this solution was added 20 μl of a test compound. After incubating the mixture at 30° C. for 10 minutes, 20 μl of [^35S] GTPγS (5 nM, 5 nCi/μl: available from Amersham Pharmacia Biotech) was added to start reaction. After incubating the mixture at 30° C. for one hour, the reaction was terminated by filtration through a glass filter (UniFilter-96GF/B, available from Packard). The filter was washed with 200 μl of a cooled reaction buffer for 3 times, and an amount of the [^35S] GTPγS (a binding amount to the membrane fraction) on the filter was measured by liquid scintillation counting. From the thus measured [^35S] GTPγS binding amount was subtracted a nonspecific binding amount (a binding amount measured in the presence of 10 μM GTPγS), to obtain a specific binding amount of [^35S ] GTPγS.
(In general: GTPγS is a poorly hydrolysed GTP analogue; its binding reports G protein activation.)

Molecules are shown by their SMILES.

T1 sequence (Q8TDS5+P63096 fused Q8TDS5:D111G/Q8TDS5:K206E/Q8TDS5:T295A/P63096:C351I): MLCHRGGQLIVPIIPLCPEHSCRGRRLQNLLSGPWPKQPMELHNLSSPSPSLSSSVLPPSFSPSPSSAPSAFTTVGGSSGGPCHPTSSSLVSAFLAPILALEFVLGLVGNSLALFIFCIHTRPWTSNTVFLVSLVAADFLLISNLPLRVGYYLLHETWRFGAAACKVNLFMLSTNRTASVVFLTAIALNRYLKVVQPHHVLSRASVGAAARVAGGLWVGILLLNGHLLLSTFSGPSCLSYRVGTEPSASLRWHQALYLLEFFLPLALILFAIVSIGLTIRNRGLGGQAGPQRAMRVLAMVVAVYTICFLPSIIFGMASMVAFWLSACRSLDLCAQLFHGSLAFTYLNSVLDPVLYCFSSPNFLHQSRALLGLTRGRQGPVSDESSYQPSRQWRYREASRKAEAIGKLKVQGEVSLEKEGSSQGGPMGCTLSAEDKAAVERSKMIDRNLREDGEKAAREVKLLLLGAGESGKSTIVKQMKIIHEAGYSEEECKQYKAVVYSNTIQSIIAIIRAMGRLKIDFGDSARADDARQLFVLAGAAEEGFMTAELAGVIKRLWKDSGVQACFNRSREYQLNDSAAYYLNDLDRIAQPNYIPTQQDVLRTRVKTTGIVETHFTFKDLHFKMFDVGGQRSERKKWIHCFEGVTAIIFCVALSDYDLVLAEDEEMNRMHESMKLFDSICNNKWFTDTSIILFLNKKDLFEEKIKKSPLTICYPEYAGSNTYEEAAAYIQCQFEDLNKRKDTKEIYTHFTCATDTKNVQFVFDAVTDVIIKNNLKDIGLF

With `CCCCC/C=C\C/C=C\C/C=C\C=C\C(=O)CCCC(=O)O` [5-oxo-ETE, 5-oxo-6E,8Z,11Z,14Z-eicosatetraenoic acid], the “effect on DHA induction of apoptosis” value in test [1] is given as “the induction of apoptosis was inhibited”. In test [2], the “specific binding amount of [35S]GTPγS” value is given as “increased in a concentration-dependent manner”.
